From patent US12146880B2, “Artificial transcription factors comprising a sliding domain and uses thereof” (priority 2013, dated 2024)
Read-outs that look alike come from different tables or passages of the source. Primed or numbered codes have the meaning given here. Ends that are not written are not given here. TMR = fluorescent label conjugated to the Cys side chain; TMR″ = tetramethylrhodamine label

Columns and labels:
phage λ DNA = test: Sliding assay: total internal reflection fluorescence microscopy of single TMR-labeled peptides on flow-stretched phage λ DNA; type: biochemical, bacteriophage λ; details: for estimated 1D diffusion constants, D: peptides diffusing along λ-DNA, low salt buffer (FIG. 6); for 1D diffusion constant, D+SD / 1D diffusion constant, D+SEM: single molecule sliding trajectories; for 1D diffusion constant, D+SD: spread = standard deviation (FIGS. 7-12); for 1D diffusion constant, D+SEM: spread = standard mean error (FIGS. 7-12)
Description: In vitro biophysical characterization of search process may be as follows. The search dynamics may be studied in vitro by directly observing fluorescently tagged compounds search DNA and bind their targets with a fluorescence microscope. In an exemplary method, linear fragments of DNA derived from bacteriophage λ (˜50 kb) are tethered on a glass coverslip and illuminated with TIRF microscopy. Flowing fluorescently tagged peptides over the coverslip stretches out the DNA hydrodynamically, and the peptides may be directly visualized as they search the DNA. Using computational algorithms, the peptides may be tracked and biophysical parameters such as the rate of diffusive translocation on DNA may be calculated from the estimated trajectories.
[…]. A flow cell was constructed on top of the cover slip such that when laminar flow is applied, the DNA stretches in the direction of flow and orients itself parallel to and in close proximity to the surface of the cover slip. Evanescent waves from a laser reflecting off the coverslip-buffer interface were used to illuminate a very small volume (˜1 pL) with a few hundred nanometers of the glass surface. The interaction of a single, TMR-labeled peptide with DNA was visualized by a CMOS camera (ORCA-Flash 4.0 from Hamamatsu) with 5 ms time-resolution. Despite the optical resolution limit imposed by diffraction, the centroid position of each signal in each frame is determined with sub-diffraction-limited resolution, typically 1-30 nm for bright fluorescent conjugates.
Labeled peptides were infused at concentration of 100-200 pM at rates of 20-50 mL/hour. High flow rates were chosen to drive the longitudinal DNA fluctuation faster than the imaging frame rate. The assay buffer consisted of 10 mM PBS (2 mM NaCl, 0.1 mM β-mercaptoethanol, 0.05 mM EDTA, 5% (v/v) glycerol, 0.01% (v/v) Tween-20, pH 6.8).

λ-DNA [1] = details: cited from earlier work; for D1 ± s.e.: results from Xiong et al
30 bp dsDNA [2] = test: Fluorescence polarization (FP) DNA binding experiments; details: Table S5; pH 7.4
λ-DNA [3] = test: Single molecule flow stretching experiments (1D diffusion of dye-labeled molecular sleds on λ-DNA); type: biochemical, bacteriophage λ; details: for D1 ± s.e.: Table S5, 2 mM NaCl buffer, pH 7.4, >50 trajectories
Description: Single Molecule Flow Stretching Experiments: The experimental details have been described by Xiong et al. Briefly, flow cells were constructed by sandwiching a double-sided tape with pre-cut channels between a poly(ethylene glycol) (PEG) functionalized coverslip and a PDMS slab containing inlet and outlet holes. The biotin-λ-DNA was made by ligating a DNA oligo with a biotin attached to the 5′ overhang of λ-DNA, and then immobilized onto the flow channel surface by utilizing biotin and streptavidin chemistry. Samples were infused at 10-400 pM concentrations at rates of 25 ml/hr. The assay buffer consisted of 10 mM phosphate buffer, 2 mM NaCl, 50 μM EDTA, 20 mM ethanol, 5% (v/v) glycerol, 0.01% Tween-20 and 0.1% (v/v) $-mercaptoethanol, and the pH was adjusted to 7.4 by adding aliquots of concentrated NaOH solution. Individual dye-labeled molecules were imaged by using a home-built total internal reflection fluorescence microscope based on a Nikon Ti body with a Hamamatsu ORCA-Flash 4.0 VI camera. Applicants used customized single particle tracking software to process the raw image data^11.
To study the motion of single molecules bound to DNA, Applicants applied a single-molecule flow-stretching assay that prepares long double-stranded DNA molecules as spatially extended templates for analysis of binding and transport activity of molecular sleds labeled with fluorescent dye molecules. […] In this assay (see a schematic in FIG. 19), functionalized DNA, e.g., biotin-k-DNA, was immobilized to a flow channel surface by one end and a laminar flow was applied to flow stretch the DNA. The flow rate was chosen so that the contribution of DNA fluctuations to the apparent motion of DNA-bound molecules along the DNA is negligible and the trajectories of single molecules were tracked by time-lapse fluorescence imaging. Here, Applicants applied the flow-stretching assay to study one-dimensional diffusion of modified peptides, peptide analogs and synthetic small molecules bound to DNA.

30 bp dsDNA [4] = details: Table S1; Cy3B conjugated to Cys residues; results from Xiong et al; cited from earlier work

Q: Which estimated 1D diffusion constants, D (phage λ DNA) does the source give for “(K)13: TMR-labeled lysine homopolymer of 13 residues, SEQ ID NO: 52 (KKKKKKKKKKKKK; also: TMR-labeled, place not given here)” here?
A: 17.3 ± 5.3 million bp²/s

Q: Which “D1 ± s.e.” value (λ-DNA [1]; Table S3) does the source give for “C(-TMR)-(K)13: TMR conjugated to Cys residue, SEQ ID NO: 36 (C(TMR)KKKKKKKKKKKKK)” here?
A: 19.9 ± 1.3 M(bp^2/S)

Q: For “C(-TMR)-(R)13: TMR conjugated to Cys residue, SEQ ID NO: 37 (C(TMR)RRRRRRRRRRRRR)”, which “D1 ± s.e.” value (λ-DNA [1]; Table S3) is on record?
A: 12.9 ± 0.5 M(bp^2/S)

Q: Which Kd (30 bp dsDNA [2]) does the source give for Cy3B-pentaethylenehexamine [Cy3B-PEHA] here?
A: 1320 ± 248 nM

Q: What about the “effect of increasing the salt concentration on the D1 value” (λ-DNA [3]; 2 mM NaCl vs 20 mM NaCl buffers, pH 7.4 (FIG. 14)) of the same substance?
A: does not increase

Q: And the “D1 ± s.e.” value (λ-DNA [3])?
A: 10.1 ± 0.5 M(bp^2/S)

Q: And the “D1 ± s.e.” value (λ-DNA [3]; listed as PHEA-Cy3B)?
A: 10.1±0.5 M(bp^2/S)

Q: For FHHHHH, which estimated 1D diffusion constants, D (phage λ DNA) is on record?
A: 14.9 ± 6.9 million bp²/s

Q: With “GRKKRRQRRRPPQ (also: TMR label, place not given here) [TAT]” as the substance, how does the estimated 1D diffusion constants, D (phage λ DNA) read?
A: 21 ± 7.5 million bp²/s

Q: Which “D1 ± s.e.” value (λ-DNA [1]; Table S1, Cy3B conjugated to Cys residues) does the source give for GVQSLKRRRCF [pVlc-Cy38] here?
A: 35.1 ± 0.8 M(bp^2/S)

Q: What about the “sliding by itself (one-dimensional diffusion constant)” value (λ-DNA [1]; literature reference 11 (Xiong)) of the same substance?
A: 35.2±0.8 M(bp2/s)

Q: And the Kd (30 bp dsDNA [4])?
A: 378 ± 20 nM

Q: Which “1D diffusion constant, D+SD” value (phage λ DNA) does the source give for KRARNTEAARRSRAR [GCN4 helix] here?
A: 12.8±5.5 ×10^6 bp^2s^−1

Q: And the “1D diffusion constant, D+SEM” value (phage λ DNA)?
A: 12.8±0.6 ×10^6 bp^2s^−1

Q: What does the source list for “KRARNTEAARRSRAR-GSGSGS-KRRR (KRARNTEAARRSRARGSGSGSKRRR) [GCN4 helix-linker-KRRR]”?
A: 1D diffusion constant, D+SD (phage λ DNA): 11.3±4.1 ×10^6 bp^2s^−1; 1D diffusion constant, D+SEM (phage λ DNA): 11.3±0.6 ×10^6 bp^2s^−1

Q: Which “1D diffusion constant, D+SD” value (phage λ DNA) does the source give for “KRARNTEAARRSRAR-GSGSGS-pVIc [GCN4 helix-linker-pVIc]” here?
A: 9.6±4.3 ×10^6 bp^2s^−1

Q: What about the “1D diffusion constant, D+SEM” value (phage λ DNA) of the same substance?
A: 9.6±0.7 ×10^6 bp^2s^−1

Q: For KRRR ({TMR″}-KRRR), which estimated 1D diffusion constants, D (phage λ DNA) is on record?
A: 20.3 ± 7.9 million bp²/s

Q: Which “1D diffusion constant, D+SD” value (phage λ DNA) does the source give for “NVKRRTHNVLERQRRNELKRSFFALRDQ [cMyc helix]” here?
A: 12.8±5.0 ×10^6 bp^2s^−1

Q: What about the “1D diffusion constant, D+SEM” value (phage λ DNA) of the same substance?
A: 12.8±0.3 ×10^6 bp^2s^−1

Q: With “STSRHKKLMFKTE ({TMR″}-STSRHKKLMFKTE) [C-terminal sequence of p53]” as the substance, how does the estimated 1D diffusion constants, D (phage λ DNA) read?
A: 17.3 ± 5.3 million bp²/s

Q: Which “D1 ± s.e.” value (λ-DNA [1]; Table S3) does the source give for “TMR-(K)13: TMR conjugated to the N-terminal amine, SEQ ID NO: 38 ({TMR″}-KKKKKKKKKKKKK)” here?
A: 8.9 ± 0.5 M(bp^2/S)

Q: For “TMR-(R)13: TMR conjugated to the N-terminal amine, SEQ ID NO: 39 ({TMR″}-RRRRRRRRRRRRR)”, which “D1 ± s.e.” value (λ-DNA [1]; Table S3) is on record?
A: 7.7 ± 0.7 M(bp^2/S)
